Patent US11845763B2, “Tricarbonyl complexes of transition metals with benzo-heterocyclic derivatives of the cyclopentadienyl anion” (National Centre For Scientific Research “Demokritos”, priority 2018, dated 2023)
Where two headings read alike, the source gives them in different places.

How the values were obtained:
[1] = cited from earlier work
[2] = target: Aβ aggregates; conditions: literature value [45]; read-out: binding affinity to Aβ aggregates (Ki); cited from earlier work
[3] = target: Aβ42 fibrillar aggregates (Homo sapiens, UniProt P05067); test: Competitive binding assay using Aβ42 fibrillar aggregates; conditions: homologous competition, Re complex vs corresponding 99mTc complex, 50 nM Aβ42 fibrillar aggregates, 3 h room temperature
Sequence of Aβ42 fibrillar aggregates (P05067 672-713 limits assumed): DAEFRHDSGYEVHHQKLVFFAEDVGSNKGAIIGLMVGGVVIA
Protocol: Competitive binding assay studies were performed in 1 mL solutions in PBS in 12 mm×75 mm borosilicate glass tubes according to a published procedure with modifications. […] The solutions were incubated for 3 h at room temperature and the bound and free radioactivity were separated by Millex-GV Syringe Filter Unit, 0.22 μm filters followed by 2×2 mL washes with PBS at room temperature. Filters containing the bound ^99mTc complexes were measured for radioactivity in a γ-counter. Binding studies were repeated in triplicate. The data were analyzed using GraphPad Prism software with the IC50 value calculated using a one-site competitive binding […] regression. The Ki value was calculated using the Cheng-Prousoff equation [44]: […]
In the case of homologous competitive binding we assume that the hot and cold ligand have identical affinities so that Kd and Ki have the same value. Thus the above equation is being transformed into: Ki=IC50−[Radioligand]

[4] = Lipophilicity, partition coefficient n-octanol/PBS; assay type: physicochemical
Protocol: The lipophilicity of ^99mTc-2-^99mTc-4 complexes was determined by the estimation of the partition coefficient in a biphasic system of n-octanol and water (PBS). The partition coefficient was expressed as the logarithm of the ratio of the counts per gram from n-octanol versus those from PBS (log Poct/water), where P is the ratio. The measurement was done in triplicate and repeated three times.

[5] = Blood-brain barrier permeability by biodistribution studies in mice; assay type: in vivo, Swiss Albino mice; conditions: for Biodistribution of radioactivity, Blood / Biodistribution of radioactivity, Brain / Biodistribution of radioactivity, Heart / Biodistribution of radioactivity, Intestines / Biodistribution of radioactivity, Kidneys / Biodistribution of radioactivity, Liver / Biodistribution of radioactivity, Lungs / Biodistribution of radioactivity, Muscle / Biodistribution of radioactivity, Pancreas / Biodistribution of radioactivity, Spleen / Biodistribution of radioactivity, Stomach: tail vein injection, healthy Swiss Albino mice; for percentage of radioactivity in the brain: 2 min, Swiss Albino mice
Protocol: This evaluation was conducted through biodistribution studies in healthy Swiss Albino mice (5 weeks old, 20-30 g) that were obtained from the breeding facilities of the Institute of Biosciences & Applications, NCSR “Demokritos”. During these experiments we evaluate the distribution of radioactivity in the tissues of the animal after radiolabeled compound administration. For the credibility of the in vivo distribution data, three independent experiments are required for each evaluation, where in each experiment the animal population ranges between 9 and 12. The experiments of synthesis, labelling and biodistribution were carried out in the Laboratory of “Radiopharmaceuticals”, NCSR “Demokritos” that has the required infrastructure to ensure safe conduct of experiments using radioactivity. All the biodistribution studies were carried out in compliance with the Presidential Decree 56/2013 (published in the Official Government Gazette of Greece 106 A/30-4-2013) that has transposed the EU Directive 2010/63 on the protection of animals used for scientific purposes.
Three groups of mice (three animals per group) were injected in the tail vein with HPLC-purified ^99mTc complexes (1-2 μCi in 0.1 mL, ethanol/saline 1:9). The mice were sacrificed at various time points (2, 15, 90 min) post injection (p.i.). The organs of interest were excised, weighed, and the radioactivity counted in an automatic γ-counter. The stomach and intestines were not emptied of food contents prior to radioactivity measurements. The calculation for blood and muscle was based upon measured activity, sample weight, and body composition data, considering that blood comprises 7% and muscle 43% of body weight. The percentage of injected dose per organ (% ID/organ) was calculated by comparison of sample radioactivity to standard solutions that contained 10% of the injected dose. The percentage of injected dose per gram (% ID/g) was calculated by dividing the % ID/organ by the weight of the organ or tissue.
where cpm reference=(cpm 10% standard×10)−cpm tail.

[6] = Stability of 99mTc complexes under excess histidine or cysteine (HPLC); assay type: physicochemical; conditions: percentage of intact complex by HPLC, PBS pH 7.4, 37° C.; for Stability, Cysteine, 1 h / Stability, Cysteine, 3 h / Stability, Cysteine, 6 h: excess cysteine; for Stability, Histidine, 1 h / Stability, Histidine, 3 h / Stability, Histidine, 6 h: excess histidine
Protocol: The stability of ^99mTc-2-^99mTc-4 complexes was assessed in the presence of excess histidine and cysteine which are capable of acting as tridentate substituents replacing the ligands of the complexes. Each of the HPLC-purified ^99mTc complex (0.5 mL, approx. 10 MBq) was mixed with a solution of histidine or cysteine (2 mM) in 0.1 M PBS, pH 7.4 (0.5 mL). The mixture was incubated at 37° C. and analyzed by HPLC after 1, 3, and 6 h. The recording of the percentage of the intact complexes in the presence of the antagonists at each time point of the study allows the estimation of the stability of the labeled ^99mTc complexes.

[7] = Brain uptake of literature 99mTc agents (cited); assay type: in vivo; conditions: 2 min post administration, converted from % ID/organ

For `C/C(=N\[O-])[C@@H](C)[N-]CC(C)(C)C[N-][C@H](C)/C(C)=N/O.[O]=[99Tc+3]` (racemic) [^99mTc-HMPAO, 99mTc-hexamethylpropyleneamineoxime], the brain penetration ([1]; 60 min post administration [39]) is given as 5 % ID/gr.

In the case of `CN(C)c1ccc(-c2cn3cc(I)ccc3n2)cc1` [[^123I]IMPY], the Ki [2] is listed as 12.5 ± 2.8 nM.

For `[99Tc+].[C-]#[O+].[C-]#[O+].[C-]#[O+].c1ccc2[nH]c(-[c-]3cccc3)nc2c1` [^99mTc-3], the Ki [3] was 7.04 ± 2.85 nM, the “Lipophilicity logPoct/water” value [4] was 1.84 ± 0.17 and the “Biodistribution of radioactivity, Blood” value ([5]; 2 min p.i.) was 3.38 ± 0.67 % ID/gr. For the same compound, the “Biodistribution of radioactivity, Blood” value ([5]; 15 min p.i.) was 1.86 ± 0.13 % ID/gr, the “Biodistribution of radioactivity, Blood” value ([5]; 90 min p.i.) was 0.48 ± 0.12 % ID/gr and the “percentage of radioactivity in the brain” value [5] was 3.99±0.60 % ID/g. For the same compound, the “Biodistribution of radioactivity, Brain” value ([5]; 2 min p.i.) was 3.99 ± 0.60 % ID/gr, the “Biodistribution of radioactivity, Brain” value ([5]; 15 min p.i.) was 0.75 ± 0.11 % ID/gr and the “Biodistribution of radioactivity, Brain” value ([5]; 90 min p.i.) was 0.04 ± 0.01 % ID/gr. The “Biodistribution of radioactivity, Heart” value ([5]; 2 min p.i.) was 7.53 ± 1.28 % ID/gr, the “Biodistribution of radioactivity, Heart” value ([5]; 15 min p.i.) was 1.95 ± 0.26 % ID/gr and the “Biodistribution of radioactivity, Heart” value ([5]; 90 min p.i.) was 0.22 ± 0.05 % ID/gr. For the same compound, the “Biodistribution of radioactivity, Intestines” value (from here on “Biodistribution … Intestines”) ([5]; 2 min p.i.) was 3.06 ± 0.08 % ID/gr, the “Biodistribution … Intestines” value ([5]; 15 min p.i.) was 14.80 ± 0.25 % ID/gr and the “Biodistribution … Intestines” value ([5]; 90 min p.i.) was 23.94 ± 4.27 % ID/gr. For the same compound, the “Biodistribution of radioactivity, Kidneys” value (“Biodistribution … Kidneys” for short) ([5]; 2 min p.i.) was 9.70 ± 0.92 % ID/gr, the “Biodistribution … Kidneys” value ([5]; 15 min p.i.) was 5.04 ± 0.53 % ID/gr and the “Biodistribution … Kidneys” value ([5]; 90 min p.i.) was 1.57 ± 0.20 % ID/gr. For the same compound, the “Biodistribution of radioactivity, Liver” value ([5]; 2 min p.i.) was 13.97 ± 2.13 % ID/gr, the “Biodistribution of radioactivity, Liver” value ([5]; 15 min p.i.) was 30.66 ± 3.96 % ID/gr and the “Biodistribution of radioactivity, Liver” value ([5]; 90 min p.i.) was 18.08 ± 1.34 % ID/gr. The “Biodistribution of radioactivity, Lungs” value ([5]; 2 min p.i.) was 7.09 ± 0.38 % ID/gr, the “Biodistribution of radioactivity, Lungs” value ([5]; 15 min p.i.) was 2.44 ± 0.39 % ID/gr and the “Biodistribution of radioactivity, Lungs” value ([5]; 90 min p.i.) was 0.45 ± 0.13 % ID/gr. For the same compound, the “Biodistribution of radioactivity, Muscle” value ([5]; 2 min p.i.) was 5.23 ± 0.79 % ID/gr, the “Biodistribution of radioactivity, Muscle” value ([5]; 15 min p.i.) was 1.50 ± 0.19 % ID/gr and the “Biodistribution of radioactivity, Muscle” value ([5]; 90 min p.i.) was 0.15 ± 0.03 % ID/gr. The “Biodistribution of radioactivity, Pancreas” value (from here on “Biodistribution … Pancreas”) ([5]; 2 min p.i.) was 5.99 ± 0.62 % ID/gr, the “Biodistribution … Pancreas” value ([5]; 15 min p.i.) was 1.96 ± 0.25 % ID/gr and the “Biodistribution … Pancreas” value ([5]; 90 min p.i.) was 0.21 ± 0.02 % ID/gr. For the same compound, the “Biodistribution of radioactivity, Spleen” value ([5]; 2 min p.i.) was 2.63 ± 0.40 % ID/gr, the “Biodistribution of radioactivity, Spleen” value ([5]; 15 min p.i.) was 1.01 ± 0.09 % ID/gr and the “Biodistribution of radioactivity, Spleen” value ([5]; 90 min p.i.) was 0.17 ± 0.03 % ID/gr. The “Biodistribution of radioactivity, Stomach” value (shortened to “Biodistribution … Stomach”) ([5]; 2 min p.i.) was 1.63 ± 0.44 % ID/gr, the “Biodistribution … Stomach” value ([5]; 15 min p.i.) was 3.17 ± 0.43 % ID/gr and the “Biodistribution … Stomach” value ([5]; 90 min p.i.) was 4.63 ± 0.56 % ID/gr. The “Stability, Cysteine, 1 h” value [6] was 98 ± 1, the “Stability, Cysteine, 3 h” value [6] was 98 ± 1 and the “Stability, Cysteine, 6 h” value [6] was 97 ± 2. The “Stability, Histidine, 1 h” value [6] was 98 ± 1, the “Stability, Histidine, 3 h” value [6] was 98 ± 1 and the “Stability, Histidine, 6 h” value [6] was 97 ± 1.

In the case of `Cn1c(-[c-]2cccc2)nc2ccccc21.[99Tc+].[C-]#[O+].[C-]#[O+].[C-]#[O+]` [^99mTc-4], the Ki [3] is reported as 5.74 ± 2.9 nM, the “Lipophilicity logPoct/water” value [4] is reported as 1.50 ± 0.12 and the “percentage of radioactivity in the brain” value [5] is reported as 6.14±1.00 % ID/g. The “Stability, Cysteine, 1 h” value [6] was 98 ± 1, the “Stability, Cysteine, 3 h” value [6] was 95 ± 2 and the “Stability, Cysteine, 6 h” value [6] was 85 ± 1. The “Stability, Histidine, 1 h” value [6] was 98 ± 1, the “Stability, Histidine, 3 h” value [6] was 96 ± 1 and the “Stability, Histidine, 6 h” value [6] was 95 ± 1.

For `CCOC(=O)[C@H](C[S-])[N-]CCN[C@@H](C[S-])C(=O)OCC.[O-2].[Tc]` [^99mTc-ECD, 99mTc-labelled ethylene dicysteine diethyl ester], the brain penetration ([1]; 2 min post administration [40]) is given as 1.32 % ID/organ and the brain penetration [7] is given as “approximately 4.4 % ID/gr”.
